Entries after “also recorded” stand apart in the source; their conditions may differ.
How the values were obtained:
A549 = assay: Tumor cell growth inhibition by MTS method, A549; format: cell-based; conditions: Homo sapiens; A549, 3.3 μM; read-out: Inhibition rate %
Experimental: (§1) III. Determination of IC50 Value of Compound for Inhibiting Tumor Cell Growth by MTS Method
(§2) 1. Cell plating: cells in logarithmic growth phase were counted and inoculated in a 96-well plate (20000 cells per well).
(§3) 2. Administrating agent to cell: 10 mM compound mother solution in DMSO was subjected to 3 fold-gradient dilution, to set 8 concentrations, which were then added to various wells, with three replicates for each concentration, and three blank wells (only culture medium) and three negative controls (containing 0.1% DMSO) on each plate.
(§4) 3. […] The OD value at 490 nm was measured with microplate reader OD490. The cell growth inhibition rate was calculated by the following formula: Cell growth inhibition rate %=1−(ODexperimental group−ODblank group)/(ODnegative group−ODblank group)×100%

JeKo-1 cells [1] = assay: Tumor cell growth inhibition by MTS method, JeKo-1; format: cell-based; conditions: Homo sapiens, JeKo-1, 120 h, 5 days of culture
Summary of the method: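 Cells seeded at 20000 per well, treated with 8-point 3-fold dilutions from 10 mM DMSO stock in triplicate, 0.1% DMSO controls. MTS read at OD490; IC50 from inhibition rates, or % inhibition at 10 μM.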

MDA-MB-231 xenograft = assay: Xenograft model of triple negative breast cancer cells (MDA-MB-231) in nude mice; format: in vivo
Experimental: 1. 4-6 weeks old female nude mice were injected subcutaneously with about 5×10^6 MDA-MB-231 cells;
2. When tumor volume (length×width×height×0.5) reached about 100 mm^3, the mice were randomly divided into three groups: control group, group with a dose of 5 mg/kg once a day, and group with a dose of 20 mg/kg once a day, and the initial tumor volume was recorded.
3. The drug or the control solvent was administered intravenously on time every day, the tumor volume was measured every day, and the procedures were continued for 12 days;
(§5) 4. In the last day, the mice were killed 6 hours after administration, the tumor grown under skin was completely peeled off, and the tumor weight was recorded.

HepG2 = assay: Tumor cell growth inhibition by MTS method, HepG2; format: cell-based; conditions: Homo sapiens; HepG2, 3.3 μM; read-out: Inhibition rate %
Experimental: as §1, §2, §3, §4

SK-MEL-28 = assay: Tumor cell growth inhibition by MTS method, SK-MEL-28; format: cell-based; conditions: Homo sapiens; SK-MEL-28, 3.3 μM; read-out: Inhibition rate %
Experimental: as §1, §2, §3, §4

MDA-MB-231 = assay: Tumor cell growth inhibition by MTS method, MDA-MB-231; format: cell-based; conditions: Homo sapiens; MDA-MB-231, 3.3 μM; read-out: Inhibition rate %
Experimental: as §1, §2, §3, §4

HCT116 = assay: Tumor cell growth inhibition by MTS method, HCT116; format: cell-based; conditions: Homo sapiens, HCT-116; HCT116, 3.3 μM; read-out: Inhibition rate %
Experimental: as §1, §2, §3, §4

MDA-MB-435S = assay: Tumor cell growth inhibition by MTS method, MDA-MB-435S; format: cell-based; conditions: Homo sapiens, read-out: Inhibition rate %
Experimental: as §1, §2, §3, §4

MCF-7 = assay: Tumor cell growth inhibition by MTS method, MCF-7; format: cell-based; conditions: Homo sapiens, MCF7; MCF-7, 3.3 μM; read-out: Inhibition rate %
Experimental: as §1, §2, §3, §4

BGC823 = assay: Tumor cell growth inhibition by MTS method, BGC823; format: cell-based; conditions: Homo sapiens, BGC-823; BGC823, 3.3 μM; read-out: Inhibition rate %
Experimental: as §1, §2, §3, §4

MDA-MB-231 cells = assay: Vacuolation of MDA-MB-231 cells caused by inhibition of compounds on PIKfyve (microscopy); format: cell-based; conditions: MDA-MB-231 cells; also: key: '+' represents the degree of vacuolation; ++: more '+' indicates more obvious vacuolation; +++: more '+' indicates more obvious vacuolation; ++++: more '+' indicates more obvious vacuolation; '−' represents no vacuolation
Summary of the method: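 MDA-MB-231 cells in 12-well plates at 37 °C, 5% CO2 were observed by microscopy after 24 and 48 h of culture for cytoplasmic vacuolation as a readout of PIKfyve inhibition. Scoring was semi-quantitative, from − (none) to increasing +.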

A375 = assay: Tumor cell growth inhibition by MTS method, A375; format: cell-based; conditions: Homo sapiens, A-375; A375, 3.3 μM; read-out: Inhibition rate %
Experimental: as §1, §2, §3, §4

SK-MEL-30 = assay: Tumor cell growth inhibition by MTS method, SK-MEL-30; format: cell-based; conditions: Homo sapiens; SK-MEL-30, 3.3 μM; read-out: Inhibition rate %
Experimental: as §1, §2, §3, §4

JeKo-1 cells [2] = assay: Lysosomal dysfunction caused by inhibition of PIKfyve, Western Blot of cathepsins in JeKo-1 cells; format: cell-based; conditions: treatment for 24 hr, FIG. 3
Source text: V. Lysosomal Dysfunction Caused by Inhibition of Compound V-c-17 on PIKfyve (FIG. 3)
After treatment with V-c-17 for 24 hr, JeKo-1 cells were lysed and tested by Western Blot. […] This was similar to the treatment result with the known PIKfyve inhibitor apilimod.

JeKo-1 xenograft = assay: Xenograft model of non-Hodgkin's lymphoma cells (JeKo-1) in nude mice; format: in vivo; conditions: 25 mg/kg once a day or twice a day
Experimental: 1. 4-6 weeks old female nude mice were injected subcutaneously with about 1×10^7 JeKo-1 cells;
2. When tumor volume (length×width×height×π/4) reached about 100 mm^3, the mice were randomly divided into four groups: control group, V-c-17 group with a dose of 25 mg/kg once a day, V-c-17 group with a dose of 25 mg/kg twice a day, and apilimod group with a dose of 25 mg/kg once a day, and the initial tumor volume was recorded.
3. The drug or the control solvent was administered intravenously on time every day, the tumor volume was measured every day, and the procedures were continued for 7 days;
as §5

ST486 cells = assay: Growth inhibition of PIKfyve-mediated tumor cells by Cell Titer Glo method, ST486; format: cell-based; conditions: Homo sapiens, 120 h, CellTiter-Glo, 5 days of culture, read-out: Inhibition rate % (ST486)
Experimental: (§6) IV. Determination of Growth Inhibition Rates of Compounds Against PIKfyve-Mediated Tumor Cells by Cell Titer Glo Method
(§7) 1. Cell plating: cells in logarithmic growth phase were counted and inoculated in 384-well plate.
(§8) 3. […] RLU was measured on PHERAstar Plus.

Toledo cells = assay: Growth inhibition of PIKfyve-mediated tumor cells by Cell Titer Glo method, Toledo; format: cell-based; conditions: Homo sapiens, 120 h, CellTiter-Glo, 5 days of culture, read-out: Inhibition rate % (Toledo)
Experimental: as §6, §7, §8

PIKfyve protein = PIKfyve protein (Homo sapiens (Human), UniProt Q9Y2I7); assay: Dissociation equilibrium constant (Kd) of compound and PIKfyve protein, DiscoverX KINOMEscan; format: binding; conditions: eleven 3-fold dilutions, curve fitting
Experimental: II. Determination of Dissociation Equilibrium Constant (Kd Value) of Compound and PIKfyve Protein
The Kd value was determined by DiscoverX's KINOMEscan™ technology according to the following steps:
1. Preparation of magnetic beads: biotin-labeled small molecule ligand and avidin-coated magnetic beads were allowed to interact at room temperature for 30 minutes, and then added with excess biotin, followed by washing with a blocking solution (1% BSA, 0.05% Tween 20, 1 mM DTT) to remove unbound ligand.
2. Binding reaction: in a 384 plate, 0.02 mL system, DNA-labeled protein, small molecule ligand-bound magnetic beads, and different concentrations of compound to be tested were mixed in a reaction solution (0.17×PBS, 0.05% Tween 20, 6 mM DTT) at room temperature with shaking for 1 hr, to which was added an eluant (1×PBS, 0.05% Tween 20) for elution. Magnetic beads were resuspended by an eluant (1×PBS, 0.05% Tween 20, 0.5 μM non-biotin-labeled small molecule ligand), and shaken at room temperature for 30 min before separating out the eluant.
3. Determination of Kd value: the content of protein in the above eluate was determined by qPCR. Eleven 3-fold dilution concentrations were determined for the compound to be tested, with 3 DMSO controls for each concentration, and the Kd value was obtained by curve fitting.

Chain of PIKfyve protein (Q9Y2I7 whole entry): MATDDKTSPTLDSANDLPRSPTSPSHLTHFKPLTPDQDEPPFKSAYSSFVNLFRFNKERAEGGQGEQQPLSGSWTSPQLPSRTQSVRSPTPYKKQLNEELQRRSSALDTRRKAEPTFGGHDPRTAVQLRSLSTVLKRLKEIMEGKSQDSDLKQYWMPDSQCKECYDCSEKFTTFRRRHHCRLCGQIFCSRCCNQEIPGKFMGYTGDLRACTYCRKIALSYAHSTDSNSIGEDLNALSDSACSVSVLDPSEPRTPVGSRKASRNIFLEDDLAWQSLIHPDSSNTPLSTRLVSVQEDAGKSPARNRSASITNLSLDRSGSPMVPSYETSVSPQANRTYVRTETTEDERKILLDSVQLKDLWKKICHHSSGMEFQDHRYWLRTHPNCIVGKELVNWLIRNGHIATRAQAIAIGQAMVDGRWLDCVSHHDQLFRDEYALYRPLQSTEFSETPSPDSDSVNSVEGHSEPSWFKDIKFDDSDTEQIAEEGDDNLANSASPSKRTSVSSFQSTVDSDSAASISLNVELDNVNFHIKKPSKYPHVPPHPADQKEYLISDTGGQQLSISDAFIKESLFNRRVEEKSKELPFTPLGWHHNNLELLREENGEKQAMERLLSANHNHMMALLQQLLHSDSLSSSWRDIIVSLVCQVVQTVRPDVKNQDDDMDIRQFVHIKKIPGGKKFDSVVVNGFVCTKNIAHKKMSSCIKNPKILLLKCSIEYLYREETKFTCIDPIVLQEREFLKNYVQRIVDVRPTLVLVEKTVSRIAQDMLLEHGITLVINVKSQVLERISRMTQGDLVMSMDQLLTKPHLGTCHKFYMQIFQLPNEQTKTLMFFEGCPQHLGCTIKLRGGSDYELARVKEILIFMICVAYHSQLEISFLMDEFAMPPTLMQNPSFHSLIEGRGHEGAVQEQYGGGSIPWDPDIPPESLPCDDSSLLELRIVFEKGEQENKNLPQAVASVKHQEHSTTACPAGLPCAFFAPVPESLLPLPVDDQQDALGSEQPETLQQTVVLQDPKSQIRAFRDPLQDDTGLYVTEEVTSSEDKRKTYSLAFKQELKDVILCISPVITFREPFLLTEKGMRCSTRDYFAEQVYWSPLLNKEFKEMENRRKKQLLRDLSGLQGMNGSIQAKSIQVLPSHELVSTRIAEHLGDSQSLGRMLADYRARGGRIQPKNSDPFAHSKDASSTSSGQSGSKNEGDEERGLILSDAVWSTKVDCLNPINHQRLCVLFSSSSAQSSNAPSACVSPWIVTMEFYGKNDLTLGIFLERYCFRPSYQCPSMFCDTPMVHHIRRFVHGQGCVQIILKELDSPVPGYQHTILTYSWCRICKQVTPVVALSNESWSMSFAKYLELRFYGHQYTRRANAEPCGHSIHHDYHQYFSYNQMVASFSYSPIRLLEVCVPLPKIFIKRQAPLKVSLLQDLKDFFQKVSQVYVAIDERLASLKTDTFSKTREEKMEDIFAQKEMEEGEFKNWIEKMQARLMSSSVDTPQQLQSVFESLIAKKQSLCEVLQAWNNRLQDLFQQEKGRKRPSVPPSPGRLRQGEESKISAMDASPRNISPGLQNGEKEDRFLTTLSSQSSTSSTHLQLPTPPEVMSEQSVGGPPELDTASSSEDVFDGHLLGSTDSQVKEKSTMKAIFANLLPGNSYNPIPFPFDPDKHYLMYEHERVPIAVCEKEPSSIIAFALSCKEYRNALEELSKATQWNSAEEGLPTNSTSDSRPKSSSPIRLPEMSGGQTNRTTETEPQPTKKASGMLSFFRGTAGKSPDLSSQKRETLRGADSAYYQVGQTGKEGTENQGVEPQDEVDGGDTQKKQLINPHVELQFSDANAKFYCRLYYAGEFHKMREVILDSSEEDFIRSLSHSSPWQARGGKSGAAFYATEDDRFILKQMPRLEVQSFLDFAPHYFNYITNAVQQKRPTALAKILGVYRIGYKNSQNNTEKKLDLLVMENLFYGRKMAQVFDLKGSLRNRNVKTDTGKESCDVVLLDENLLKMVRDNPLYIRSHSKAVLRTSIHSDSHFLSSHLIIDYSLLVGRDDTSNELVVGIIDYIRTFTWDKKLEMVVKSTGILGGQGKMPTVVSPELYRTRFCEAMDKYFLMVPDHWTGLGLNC

Row | SMILES | IC50 (JeKo-1 cells [1]) [nM] | degree of vacuolation, 1 μM, 24 h (MDA-MB-231 cells) | degree of vacuolation, 1 μM, 48 h (MDA-MB-231 cells) | degree of vacuolation, 10 μM, 24 h (MDA-MB-231 cells) | degree of vacuolation, 10 μM, 48 h (MDA-MB-231 cells) | immature cathepsin A and cathepsin D (Western Blot) (JeKo-1 cells [2]) | inhibition at 3.3 µM (ST486 cells) [%] | inhibition at 3.3 µM (Toledo cells) [%] | Kd (PIKfyve protein) [nM] | also measured
1 | Cc1ccc(NC(=O)c2cccc(C(F)(F)F)c2)cc1Nc1cc(-c2cccnc2)nc2[nH]ccc12 [I-a-1] | 2040 | +++ | +++ | +++ | +++ |  |  |  |  | inhibition at 3.3 µM (A549): 65.3%; tumor volume (MDA-MB-231 xenograft; MDA-MB-231 xenograft mice, tail vein, 5 mg/kg, 20 mg/kg every day, FIG. 4a): effectively inhibit the increase of tumor volume, with good dose dependence; final tumor weight (MDA-MB-231 xenograft; MDA-MB-231 xenograft mice, tail vein, 5 mg/kg, 20 mg/kg every day, FIG. 4b): significantly smaller than that in the control group, with good dose dependence; tumor growth (MDA-MB-231 xenograft; MDA-MB-231 xenograft, nude mice, intravenous, 5 mg/kg and 20 mg/kg once a day, 12 days, FIG. 4): Effectively Inhibited Tumor Growth; inhibition at 3.3 µM (HepG2): 64.8%; inhibition at 3.3 µM (SK-MEL-28): 64%; inhibition at 3.3 µM (MDA-MB-231): 48.4%; inhibition at 3.3 µM (HCT116): 55.8%; inhibition at 3.3 µM (MDA-MB-435S): 56.2%; inhibition at 3.3 µM (MCF-7): 44.2%; inhibition at 3.3 µM (BGC823): 54%; inhibition at 3.3 µM (A375): 94%; inhibition at 3.3 µM (SK-MEL-30): 61.9%
2 | COc1ccc(C(=O)Nc2cccc(C(F)(F)F)c2)cc1Nc1nc(-c2cccnc2)c2[nH]ccc2n1 [V-c-17] | 743 | ++ | − | ++ | + | immature cathepsins A and D gradually increase, with good dose dependence; also recorded: immature cathepsin A and cathepsin D increased, and had good concentration dependence | 95.7 | 99.7 | 640 | tumor volume (JeKo-1 xenograft; JeKo-1 xenograft mice, tail vein, FIG. 5a): effectively inhibit the increase of tumor volume, with good dose dependence; final tumor weight (JeKo-1 xenograft; JeKo-1 xenograft mice, tail vein, FIG. 5b): significantly smaller than that in the control group, with good dose dependence; tumor growth (JeKo-1 xenograft; JeKo-1 xenograft, nude mice, intravenous, 7 days, FIG. 5): Effectively Inhibited Tumor Growth
3 | Cc1ccc(NS(=O)(=O)c2cccc(C(F)(F)F)c2)cc1Nc1nc(-c2cccnc2)c2[nH]ccc2n1 [V-c-20] | 9410 | − | ++ | − | ++ |  | 33.3 | 99.7 | 1000 | 
4 | Cc1ccc(NC(=O)c2ccc(C(F)(F)F)cc2)cc1Nc1nc(-c2cccnc2)c2[nH]ccc2n1 [V-c-23] |  | ++ | − | ++ | − |  | 27.2 | 94.9 | 33 | inhibition at 10 µM (JeKo-1 cells [1]; 10 μM, read-out: cell growth inhibition rate of compounds at 10 μM): 15.8%
5 | Cc1cccc(/C=N/Nc2cc(N3CCOCC3)nc(OCCc3ccccn3)n2)c1 [apilimod, reference compound] |  |  |  |  |  | immature cathepsins A and D gradually increase, with good dose dependence |  |  |  | 

Source: US11352354B2, “Substituted penta-fused hexa-heterocyclic compounds, preparation method therefor, drug combination and use thereof” (Xiamen University, priority 2017, dated 2022)
